Measurements from US12497610B2, “Functional genomics using CRISPR-CAS systems for saturating mutagenesis of non-coding elements, compositions, methods, libraries and applications thereof” (THE BROAD INSTITUTE, INC., priority 2015, dated 2025).

Legend:
Format in all cases: cell-based, human
CUL3 = experiment: ddPCR quantification of CUL3 expression in A375 cells transduced with individual sgRNAs; conditions: for decrease in CUL3 expression: A375, 7 days post-transduction, normalized to non-targeting sgRNAs; for CUL3 expression: A375, relative to non-targeting sgRNAs, result in words
Source text: Array Validation of Primary Screen Hits
For individual (array) validation of noncoding sgRNAs, Applicants first identified sgRNAs enriched in the top 5% of the library as given by the normalized log 2(Vemu/DMSO) read ratio. In order to have high confidence in these sgRNAs, Applicants used the minimum of the two infection replicates for the normalized log2 (Vemu/DMSO) read ratio. […] This ensures that putative noncoding functional elements were supported by the presence of at least 2 enriched sgRNAs. From this group, Applicants picked 25 sgRNAs distributed across different genomic regions for individual validation (see table S2 for a list of sgRNA sequences). Applicants also included 3 exon-targeting and 3 non-targeting sgRNAs to serve as positive and negative controls, respectively.
For each sgRNA, standard desalted short oligonucleotides (Integrated DNA Technologies) were annealed, phosphorylated and cloned into a lentiviral vector (lentiCRISPRv2, Addgene 52961) that contained Cas9 and an sgRNA cassette. For each sgRNA, A375 cells were transduced with lentiviral supernatants. After 24 hours, media was replaced with R10 with 1 ug/mL of puromycin. Viral volumes were titered such that 20-40% of cells survived after puromycin selection. After selection and expansion for 7 days in puromycin, cell were plated for DNA/RNA extraction, vemurafenib resistance, or ChIP assays.
RNA Extraction and ddPCR Quantification of CUL3 Expression
After 7 days of puromycin selection, A375 cells transduced with individual lentiCRISPRv2 sgRNAs were plated in 3 replicate wells (2×10^3 cells/well) in 96-well plates. After 4 days (70-90% confluent), RNA was extracted using a homemade version of a rapid lysis kit for quantitative PCR (similar to commercial “Cells-to-Ct”-style kits). This procedure (detailed below) enables rapid RNA extraction and qPCR/ddPCR readout from 96-well plates with minimal hands-on time.
Cells were first washed in 100 ul of chilled phosphate-buffered saline (PBS). Then, cells were incubated at room temperature for 8 minutes in 50 ul of Complete Lysis Buffer. The Complete Lysis Buffer consists of the Base Lysis Buffer with freshly added 100 ug/ml Proteinase K (Sigma P2308) and 300 U/mL DNase I (Sigma D2821). When adding DNase I, it is important to not vortex but mix only by gentle pipetting. The Base Lysis Buffer is made in RNAse-free water (ThermoFisher Scientific 10977015) with 10 mM Tris pH8 (Ambion AM9856), 0.5 mM MgCl2 (Sigma M1028), 0.44 mM CaCl2 (Sigma 21115), 10 uM DTT (Sigma 43816), 0.1% Triton X-114 (Calbiochem 648468), and 1.73 mN HCl (Sigma 318965) and should have a final pH of 7.8. The Base Lysis Buffer is stable at 4° C. for up to 6 months.
After the 8-minute incubation in Complete Lysis Buffer, 30 ul of the cell lysis was added to new PCR plates containing 3 ul of STOP buffer in each well to stop the lysis reaction. The STOP buffer is made in RNAse-free water with 1 mM Proteinase K inhibitor AAPF N-(Methoxysuccinyl)-Ala-Ala-Pro-Phe-chloromethyl ketone (SEQ ID NO: 174) (Millipore 539470), 90 mM EDTA (ThermoFisher Scientific 15575020), and 113 uM DTT (Sigma 43816). The final pH of the STOP buffer should be 8, adjusted appropriately with HCl and KOH. The STOP buffer is stable for up to 6 months at 20° C. The lysis reaction was mixed with the STOP buffer by pipetting up and down 5 times. Applicants then incubated the lysis and STOP buffer for at least 2 minutes but not more than 20 minutes. (Extra stopped lysis can be stored at −80° C. for up to 5 months.)
Applicants transferred 5 ul of the stopped lysis to new PCR plates with 20 ul of RT master mix. The RT master mix is from the RevertAid Reverse Transcriptase kit (ThermoFisher Scientific K1691) and is as described in the manufacturer's protocol but with an added oligo-dT primer. […]

[1] = test system: sgRNA target sites near CUL3; experiment: Deep sequencing after CRISPR mutagenesis (indel analysis at sgRNA target sites)
Description: Deep Sequencing after CRISPR Mutagenesis
After 7 days of puromycin selection, A375 cells transduced with individual lentiCRISPRv2 sgRNAs were plated in 2 replicate wells (2×10^3 cells/well) in 96-well plates. Cells were plated in either R10+DMSO or R10+vemurafenib (2 uM). After 4 days (70-90% confluent), Applicants extracted gDNA from all wells (Illumina/Epicentre QuickExtract QE09050) and performed amplification and deep sequencing as previously described (Shalem et al. 2014). Briefly, for each sgRNA target site, Applicants designed PCR primers to amplify genomic regions surrounding the site (100-200 bp amplicons) and to add universal handles for the second stage of amplification (see table S3 for all deep sequencing primers). Applicants then used a second PCR step to add sequences needed for Illumina sequencing and sample barcoding. Applicants pooled all samples together and sequenced them on a MiSeq using a 250 bp single-end read (Illumina MS-102-2002).
Custom Python scripts were used for barcode demultiplexing and insertion-deletion (indel) length measurement. To measure indel length and eliminate any potential off-target or primer-dimer reads, Applicants first identified our genomic (first PCR step) primers in each read. Applicants then checked that each read contained at least 5 bases beyond each of the genomic primers. Typically, 80-90% of demultiplexed reads matched this criterion. Reads matching this criterion were used to measure indel length by comparing distances between the identified primer-adjacent sequences with those in the reference sequence. Further multiple alignment analysis for specific sgRNAs was done using Geneious's iterative k-mer multiple alignment tool (Geneious 6.1.7).

CTCF = experiment: ChIP-ddPCR for CTCF; conditions: ChIP-ddPCR at the site after editing
Description: (§1) Chromatin Immunoprecipitation (ChIP) for Histone Modifications and Transcription Factors
(§2) After 7 days of puromycin selection, A375 cells transduced with individual lentiCRISPRv2 sgRNAs were plated in T-225 flasks and grown to 70-90% confluence (6 days). At this point, chromatin fixation was initiated by adding formaldehyde directly to the growth media (final concentration 1%) and incubating at 37° C. for 10 minutes. The entire two-day ChIP procedure was performed using the Magna ChIP HiSens Chromatin Immunoprecipitation Kit (Millipore 1710460), as specified in the manufacturer's protocol. […]
(§3) Using BatchPrimer3, Applicants designed primers centered on the sgRNA target site with a target amplicon size of 80-120 bp (see table S4 for ChIP-ddPCR primers). Droplet digital PCR (ddPCR) reactions using EvaGreen (BioRad 1864034) were used to quantify changes between input, histone/TF ChIP, and IgG ChIP samples for A375 cells transduced with specific sgRNAs and untransduced A375 cells. […] Applicants calculated the percent change in ChIP signal after genome editing by normalizing each ChIP sample to its corresponding input sample and then comparing the normalized ChIP between A375s transduced with specific sgRNAs and untransduced (control) A375 cells.

FOS = experiment: ChIP-ddPCR for FOS; conditions: ChIP-ddPCR compared with control cells
Description: as §1, §2, §3

JUN = experiment: ChIP-ddPCR for JUN; conditions: ChIP-ddPCR compared with control cells
Description: as §1, §2, §3

ZNF263 = experiment: ChIP-ddPCR for ZNF263; conditions: ChIP-ddPCR vs non-targeting sgRNA
Description: as §1, §2, §3

| Substance | decrease in CUL3 expression (CUL3) | mean indel size ([1]; A375, deep sequencing of the site) | amplicons / alleles containing insertion-deletion (indel) mutations ([1]; A375 after 7 days selection) | decrease of CTCF occupancy (CTCF) | FOS binding (FOS) | JUN binding (JUN) | CUL3 expression (CUL3) | ZNF263 occupancy (ZNF263) |
| --- | --- | --- | --- | --- | --- | --- | --- | --- |
| CTCF sg1: validation sgRNA GCCACAGCCATGCCCAGTOG, SEQ ID NO 446, 3′ of CUL3 (guide GCCACAGCCATGCCCAGTGG; expressed or natural sequence) | 30% | −9.5 bp | 96% | 45% | – | – | – | – |
| distal 3′ sg1: validation sgRNA AGOACACAGTCATAACCACA, SEQ ID NO 445, 3′ of CUL3 (guide AGCACACAGTCATAACCACA; expressed or natural sequence) | ~25% | – | – | – | decreased | decreased | – | – |
| Intron-sg2: validation sgRNA CGCGGAGTCCTCCCTGTGTG, SEQ ID NO 455, intron and promoter (expressed or natural sequence) | – | – | – | – | – | – | decrease in CUL3 expression | significant decrease |
| Intron-sg1: validation sgRNA TCCGCGGCTGCTAGCAGCGC, SEQ ID NO 454, intron and promoter (expressed or natural sequence) | – | – | – | – | – | – | decrease in CUL3 expression | significant decrease |
| distal 3′ sg2: validation sgRNA GCAGCGTCCGGAGTTGGCAC, SEQ ID NO 444, 3′ of CUL3 (expressed or natural sequence) | ~25% | – | – | – | decreased | decreased | – | – |
